# Experimental data published in US12371432B2, “Haloallylamine compounds and application thereof” (TransThera Sciences (Nanjing), Inc., priority 2019, dated 2025).
# Where a name gives a salt, the structure may show the parent alone.
# Legend:
# rhVAP-1 = target: T1, rhVAP-1 (Homo sapiens, UniProt Q16853); experiment: Inhibitory activity against rhVAP-1 enzyme (Biological Example 2); type: biochemical; settings: Table 2; benzylamine substrate, Amplex Red/HRP
# T1 construct: purchased PeproTech
# T1 sequence (Q16853 27-763 limits assumed): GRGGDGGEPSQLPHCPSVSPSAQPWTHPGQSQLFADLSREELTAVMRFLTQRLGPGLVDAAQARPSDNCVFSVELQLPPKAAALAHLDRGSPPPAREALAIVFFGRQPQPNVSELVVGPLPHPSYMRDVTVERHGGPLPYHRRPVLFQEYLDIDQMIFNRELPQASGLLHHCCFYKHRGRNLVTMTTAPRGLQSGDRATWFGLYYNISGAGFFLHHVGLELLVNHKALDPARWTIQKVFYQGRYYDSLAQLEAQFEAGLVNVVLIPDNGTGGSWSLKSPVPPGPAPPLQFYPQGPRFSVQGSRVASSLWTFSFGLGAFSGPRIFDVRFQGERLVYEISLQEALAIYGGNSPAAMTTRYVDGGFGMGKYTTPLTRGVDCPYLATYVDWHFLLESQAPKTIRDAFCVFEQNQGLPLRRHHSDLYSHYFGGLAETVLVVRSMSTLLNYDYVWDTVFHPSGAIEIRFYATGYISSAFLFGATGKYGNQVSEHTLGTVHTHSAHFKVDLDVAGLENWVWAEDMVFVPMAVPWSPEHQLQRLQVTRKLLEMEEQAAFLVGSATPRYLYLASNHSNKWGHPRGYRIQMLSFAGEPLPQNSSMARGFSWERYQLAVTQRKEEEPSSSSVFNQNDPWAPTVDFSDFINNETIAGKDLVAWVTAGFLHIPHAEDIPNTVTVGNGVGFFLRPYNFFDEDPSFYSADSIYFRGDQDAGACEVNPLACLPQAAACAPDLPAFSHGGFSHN
# Protocol: 1. Inhibitory Activity of Compounds Against rhVAP-1 Enzyme
# (§1) (1) Instrument, Consumable and Reagent
# Microplate reader (Perkin Elmer, Nivo 5S), black unclear-bottom 96-well plate (Corning) and rhVAP-1 (PeproTech)
# (§2) (2) Preparation of Concentration Gradient Compound Solutions
# (§3) An appropriate amount of the compound to be tested was taken, dissolved in DMSO to 10 mM and then stored. Before the study, an appropriate amount of mother liquor of the 10 mM compound to be tested was taken and gradiently diluted 3-fold with DMSO, 10 concentration gradients in total. Each concentration gradient was then diluted 100-fold with 0.1 M of PBS.
# (§4) (3) Preparation of Enzyme Solutions
# An appropriate amount of protein diluent was added into rhVAP-1 powder, obtaining 1 mg/mL of mother liquor for storage. Before the study, PBS was used to carry out dilution to obtain enzyme solutions of 4× concentrations.
# (§5) (4) Preparation of Substrate Mixtures of 2× Concentrations
# (§6) An appropriate amount of benzylamine was weighed and dissolved with PBS to obtain 200 mM of benzylamine solution. The benzylamine solution was added with 2 mM of Amplex Red mother liquor and 500 U/mL of HRP mother liquor and diluted with PBS to obtain substrate mixtures of 2× concentrations.
# (§7) 10 μL compound solutions of different concentrations, 25 μL rhVAP-1 enzyme solutions of 4× concentrations and 15 μL of PBS were first added into a 96-well plate, shaken to be mixed uniformly and then incubated at 37° C. for 30 min. 50 μL substrate mixtures of 2× concentrations were then added into each well, and the microplate reader was immediately used to perform detection with 580 nm (20 nm) exciting light and 620 nm (10 nm) emission light for 5 min each time, 30 min in total. The inhibition rate was calculated according to the following formula: V (RFU/min)=(Ft (RFU)−F0 (RFU))/(time(min)) Inhibition rate (%)=100%−Vcmpd (RFU/min)/Vmax (RFU/min)×100%
# (§8) V: fluorescence change rate; Ft: fluorescence reading at time point t; F0: initial fluorescence reading; Time: duration t; Vcmpd: fluorescence change rate of tested compound; Vmax: Max hole fluorescence change rate.
# (§9) (6) Fitting of Dose-Response Curve
# (§10) With the log value of concentration as the X axis and the percent inhibition rate as the Y axis, the log (inhibitor) vs. response-variable slope of analysis software GraphPad Prism 5 was used to fit a dose-response curve, thus obtaining the IC50 value of activity of each compound against the enzyme.
# rhAOC1 = target: T2, rhAOC1 (Homo sapiens, UniProt P19801); experiment: Selectivity against rhAOC1 enzyme (Biological Example 2); type: biochemical; settings: Table 2; histamine substrate, Amplex Red/HRP
# T2 construct: purchased R&D
# T2 sequence (P19801 20-751): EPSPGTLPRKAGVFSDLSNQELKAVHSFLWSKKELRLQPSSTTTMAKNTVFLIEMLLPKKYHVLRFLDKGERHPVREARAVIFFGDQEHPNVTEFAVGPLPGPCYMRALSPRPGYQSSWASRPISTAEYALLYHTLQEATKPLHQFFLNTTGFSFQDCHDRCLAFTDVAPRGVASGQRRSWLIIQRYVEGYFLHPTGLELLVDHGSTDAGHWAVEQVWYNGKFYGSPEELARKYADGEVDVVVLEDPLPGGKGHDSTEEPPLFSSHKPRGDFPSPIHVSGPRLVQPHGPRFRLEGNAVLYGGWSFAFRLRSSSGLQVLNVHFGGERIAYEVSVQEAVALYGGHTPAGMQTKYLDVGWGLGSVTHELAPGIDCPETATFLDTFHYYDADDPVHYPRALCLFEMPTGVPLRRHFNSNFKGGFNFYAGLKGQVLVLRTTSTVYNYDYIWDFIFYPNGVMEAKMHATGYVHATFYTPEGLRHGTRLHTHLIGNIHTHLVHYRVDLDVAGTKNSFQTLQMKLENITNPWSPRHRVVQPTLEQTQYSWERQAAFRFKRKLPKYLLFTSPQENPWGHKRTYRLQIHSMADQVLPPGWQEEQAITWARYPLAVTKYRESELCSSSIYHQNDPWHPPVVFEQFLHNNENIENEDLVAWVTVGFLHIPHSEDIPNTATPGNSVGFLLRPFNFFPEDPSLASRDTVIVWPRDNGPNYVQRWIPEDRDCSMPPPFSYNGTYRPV
# Protocol: 2. Selectivity of Compounds Against rhAOC1 Enzyme
# as §1
# Microplate reader (Perkin Elmer, Nivo 5S), black unclear-bottom 96-well plate (Corning) and rhAOC1 (R&D)
# as §2
# as §3, with “10-fold” for “100-fold”
# as §4
# An appropriate amount of rhAOC1 mother liquor with a concentration of 0.441 mg/mL was taken and diluted with an appropriate amount of 50 mM HEPES buffer solution to obtain enzyme solutions of 4× concentrations.
# as §5
# as §6, with “histamine” for “benzylamine”, “50 mM of HEPES buffer solution” for “PBS”, “20” for “200”
# as §7, with “rhAOC1” for “rhVAP-1”, “50 mM HEPES buffer solution” for “PBS”, “detect fluorescence intensity of each well” for “perform detection”
# as §8, §9, §10
Compound,IC50 (rhVAP-1) [nM],IC50 (rhAOC1) [nM]
"CCC(C)(C)N1CCc2nn(C/C(=C/F)CN)cc2C1=O [Compound A49 hydrochloride, (E)-2-(2-(aminomethyl)-3-fluoroallyl)-5-(tert-pentyl)-2,5,6,7-tetrahydro-4H-pyrazolo[4,3-c]pyridin-4-one]",17,
"NC/C(=C\F)Cn1cc2c(n1)CCN(CC1CC1)C2=O [Compound A48 hydrochloride, (E)-2-(2-(aminomethyl)-3-fluoroallyl)-5-(cyclopropylmethyl)-2,5,6,7-tetrahydro-4H-pyrazolo[4,3-c]pyridin-4-one]",12,
"CN1CCc2nn(C/C(=C/F)CN)cc2C1=O [Compound A24 hydrochloride, (E)-2-(2-(aminomethyl)-3-fluoroallyl)-5-methyl-2,5,6,7-tetrahydro-4H-pyrazolo[4,3-c]pyridin-4-one]",54,4720
"COC1(C)CCN(C(=O)c2ccc3c(ccn3C/C(=C/F)CN)c2)CC1 [Compound C15 hydrochloride, (E)-(1-(2-(aminomethyl)-3-fluoroallyl)-1H-indol-5-yl)(4-methoxy-4-methylpiperidin-1-yl)methanone]",63,8380
"CC(C)(C)N1CCc2c(cnn2C/C(=C/F)CN)C1=O [Compound A21, (E)-1-(2-(aminomethyl)-3-fluoroallyl)-5-(tert-butyl)-1,5,6,7-tetrahydro-4H-pyrazolo[4,3-c]pyridin-4-one]",96,4050
"NC/C(=C\F)Cn1cc(C(=O)NC2CC2)cn1 [Compound B4 hydrochloride, (E)-1-(2-(aminomethyl)-3-fluoroallyl)-N-cyclopropyl-1H-pyrazole-4-carboxamide]",51,5930
"NC/C(=C\F)Cn1cc2c(n1)CCN(C1CCCC1)C2=O [Compound A10 hydrochloride, (E)-2-(2-(aminomethyl)-3-fluoroallyl)-5-cyclopentyl-2,5,6,7-tetrahydro-4H-pyrazolo[4,3-c]pyridin-4-one]",40,1240
"NC/C(=C\F)Cn1cc2c(n1)CCN(C1CCC1)C2=O [Compound A9 hydrochloride, (E)-2-(2-(aminomethyl)-3-fluoroallyl)-5-cyclobutyl-2,5,6,7-tetrahydro-4H-pyrazolo[4,3-c]pyridin-4-one]",37,911
"CC(C)(C)N1Cc2nn(C/C(=C/F)CN)cc2C1=O [Compound A13, (E)-2-(2-(aminomethyl)-3-fluoroallyl)-5-(tert-butyl)-5,6-dihydropyrrolo[3,4-c]pyrazol-4(2H)-one]",58,4180
"NC/C(=C\F)Cn1cc2c(n1)CCNC2=O [Compound A23 hydrochloride, (E)-2-(2-(aminomethyl)-3-fluoroallyl)-2,5,6,7-tetrahydro-4H-pyrazolo[4,3-c]pyridin-4-one]",39,
"CCN1Cc2cnn(C/C(=C/F)CN)c2C1=O [Compound A31 hydrochloride, (E)-1-(2-(aminomethyl)-3-fluoroallyl)-5-ethyl-4,5-dihydropyrrolo[3,4-c]pyrazol-6(1H)-one]",53,8280
"NC/C(=C\F)Cn1ccc2cc(C(=O)N3CCC3)ccc21 [Compound C13 hydrochloride, (E)-(1-(2-(aminomethyl)-3-fluoroallyl)-1H-indol-5-yl)(azetidin-1-yl)methanone]",67,1080
"NC/C(=C\F)Cn1ccc2cc(C(=O)N3CCCC3)ccc21 [Compound C7 hydrochloride, (E)-(1-(2-(aminomethyl)-3-fluoroallyl)-1H-indole-5-yl)(pyrrolidin-1-yl)methanone]",96,13400
"COCCN1CCc2nn(C/C(=C/F)CN)cc2C1=O [Compound A47 hydrochloride, (E)-2-(2-(aminomethyl)-3-fluoroallyl)-5-(2-methoxyethyl)-2,5,6,7-tetrahydro-4H-pyrazolo[4,3-c]pyridin-4-one]",20,

# The next lines start with the values.
IC50 (rhVAP-1) [nM],IC50 (rhAOC1) [nM],Compound
83,8580,"CC(C)(C)NC(=O)c1ccn(C/C(=C/F)CN)c1 [Compound B12, (E)-1-(2-aminomethyl-3-fluoroallyl)-N-tert-butyl-1H-pyrrole-3-carboxamide]"
70,10800,"CN(C)C(=O)c1cnn(C/C(=C/F)CN)c1 [Compound B29, (E)-1-(2-(aminomethyl)-3-fluoroallyl)-N,N-dimethyl-1H-pyrazole-4-carboxamide]"
55,5380,"CCNC(=O)c1cnn(C/C(=C/F)CN)c1 [Compound B2, (E)-1-(2-(aminomethyl)-3-fluoroallyl)-N-ethyl-1H-pyrazole-4-carboxamide]"
14,,"NC/C(=C\F)Cn1cc(C(=O)Nc2ccc(Cl)cc2)cn1 [Compound B28, (E)-1-(2-aminomethyl-3-fluoroallyl)-N-4-chlorophenyl-1H-pyrazole-4-carboxamide]"
89,12500,"CC(C)(C)NC(=O)c1cnn(C/C(=C/F)CN)c1 [Compound B3, (E)-1-(2-(aminomethyl)-3-fluoroallyl)-N-(tert-butyl)-1H-pyrazole-4-carboxamide]"
